In US20060069132A1, “Azolecarboxamide herbicides” (priority 2004, published 2006):

How the values were obtained:
barnyardgrass [1] = experiment: Test B pre-/postemergence herbicide test; type: in vivo, Echinochloa crus-galli; conditions: Postemergence, scale 0 (no effect) to 100 (complete control)
Method in brief: (§1)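 Greenhouse pot assay with simultaneous preemergence (treated seed) and postemergence (2–18 cm seedlings) applications of surfactant-containing, non-phytotoxic solvent formulations. Response scored visually 13–15 days later on a 0–100 scale, 100 meaning complete control.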

Surinam grass = experiment: Test B pre-/postemergence herbicide test; type: in vivo, Urochloa decumbens
Method in brief: (§2)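 Flooded paddy rice and barnyardgrass were treated at the 2-leaf stage; upland plantings received compound either on sown seed or on 1- to 4-leaf seedlings. All were kept 13–15 days in a greenhouse and scored visually, 0–100, relative to untreated plants.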

cocklebur = experiment: Test B pre-/postemergence herbicide test; type: in vivo, Xanthium strumarium
Method in brief: as §1

corn = experiment: Test B pre-/postemergence herbicide test; type: in vivo, Zea mays
Method in brief: as §2

large crabgrass [2] = experiment: Test B pre-/postemergence herbicide test; type: in vivo, Digitaria sanguinalis
Method in brief: as §2

giant foxtail [3] = experiment: Test B pre-/postemergence herbicide test; type: in vivo, Setaria faberi
Method in brief: as §2

lambsquarters = experiment: Test B pre-/postemergence herbicide test; type: in vivo, Chenopodium album
Method in brief: as §2

morningglory [4] = experiment: Test B pre-/postemergence herbicide test; type: in vivo, Ipomoea coccinea
Method in brief: as §1

pigweed = experiment: Test B pre-/postemergence herbicide test; type: in vivo, Amaranthus retroflexus
Method in brief: as §2

velvetleaf [5] = experiment: Test B pre-/postemergence herbicide test; type: in vivo, Abutilon theophrasti
Method in brief: as §2

blackgrass = experiment: Test B postemergence herbicide test; type: in vivo, Alopecurus myosuroides
Method in brief: (§3)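 Greenhouse test; postemergence application to plants at 1–4 leaves (2–18 cm); paddy species at 2 leaves; evaluated visually vs controls at 13–15 days; scale 0–100 (100 = complete control).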

wheat = experiment: Test B postemergence herbicide test; type: in vivo, Triticum aestivum; set-up: key to Wheat plant response rating: 0 = no effect, 100 = complete control
Method in brief: (§4)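 Postemergence plants were sprayed with formulated test chemicals at 2 to 18 cm height (1- to 4-leaf stage); paddy species were grown to the 2-leaf stage. After 13 to 15 days in a greenhouse, injury was rated visually against untreated controls on a 0–100 scale (0 = no effect, 100 = complete control).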

wild oat = experiment: Test B postemergence herbicide test; type: in vivo, Avena fatua
Method in brief: as §4

rice = experiment: Test B flooded paddy test; type: in vivo, Oryza sativa; conditions: scale 0 to 100 (0 no effect, 100 complete control)
Method in brief: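 After treating 2-leaf paddy plants or 2–18 cm postemergence plants (1 to 4 leaves) with formulated chemical, researchers kept them in a greenhouse for 13–15 days. Effects were judged visually versus controls: 0 indicates none, 100 total control.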

[6] = test system: small flower umbrella sedge; experiment: Test B flooded paddy test; type: in vivo, Cyperus difformis; conditions: scale 0 to 100 (0 no effect, 100 complete control)
Method in brief: as §3

ducksalad = experiment: Test B flooded paddy test; type: in vivo, Heteranthera limosa; conditions: scale 0 to 100 (0 no effect, 100 complete control)
Method in brief: as §3

barnyardgrass [7] = experiment: Test B flooded paddy test; type: in vivo, Echinochloa crus-galli; conditions: scale 0 to 100 (0 no effect, 100 complete control)
Method in brief: as §3

barnyardgrass [8] = experiment: Test A pre-/postemergence herbicide test; type: in vivo, Echinochloa crus-galli
Method in brief: (§5)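 Greenhouse injury scoring (0–100, complete control = 100) at approximately ten days follows simultaneous pre- and postemergence application. Soil received a directed spray after seeding; seedlings of 2–10 cm at the one- to two-leaf stage were sprayed to runoff.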

large crabgrass [9] = experiment: Test A pre-/postemergence herbicide test; type: in vivo, Digitaria sanguinalis
Method in brief: as §5

giant foxtail [10] = experiment: Test A pre-/postemergence herbicide test; type: in vivo, Setaria faberi
Method in brief: as §5

morningglory [11] = experiment: Test A pre-/postemergence herbicide test; type: in vivo, Ipomoea spp.
Method in brief: as §5

redroot pigweed = experiment: Test A pre-/postemergence herbicide test; type: in vivo, Amaranthus retroflexus
Method in brief: as §5

velvetleaf [12] = experiment: Test A pre-/postemergence herbicide test; type: in vivo, Abutilon theophrasti
Method in brief: as §5

[13] = Postemergence, 500 g ai/ha, scale 0 (no effect) to 100 (complete control)
[14] = postemergence, 125 g ai/ha, scale 0 to 100
[15] = Postemergence, 125 g ai/ha, 0 to 100 scale, 0 no effect, 100 complete control
[16] = Postemergence, 500 g ai/ha, 0 to 100 scale, 0 no effect, 100 complete control
[17] = preemergence, 125 g ai/ha, visual injury, 0 to 100 scale (0 no effect, 100 complete control)
[18] = preemergence, 500 g ai/ha, visual injury, 0 to 100 scale (0 no effect, 100 complete control)

C=CCN(C(C)=O)C(=O)c1ccc(F)c(NC(=O)c2cc(C(C)(C)C)nn2CC)c1 [Compound 442] was tested, and the “Barnyardgrass plant response rating” value (barnyardgrass [1]; 125 g ai/ha) was 10, the “Barnyardgrass plant response rating” value (barnyardgrass [1]; 500 g ai/ha) was 20 and the “Surinam Grass plant response rating” value (Surinam grass; [13]) was 20. The “Surinam Grass plant response rating” value (Surinam grass; [14]) was 20, the “Cocklebur plant response rating” value (cocklebur; [13]) was 100 and the “Cocklebur plant response rating” value (cocklebur; [14]) was 80. The “Corn plant response rating” value (corn; [13]) was 30, the “Corn plant response rating” value (corn; [14]) was 30 and the “Crabgrass, Large plant response rating” value (large crabgrass [2]; [13]) was 20. For the same compound, the “Crabgrass, Large plant response rating” value (large crabgrass [2]; [14]) was 10, the “Foxtail, Giant plant response rating” value (giant foxtail [3]; [13]) was 20 and the “Foxtail, Giant plant response rating” value (giant foxtail [3]; [14]) was 20. For the same compound, the “Lambsquarters plant response rating” value (lambsquarters; [13]) was 70, the “Lambsquarters plant response rating” value (lambsquarters; [14]) was 40 and the “Morningglory plant response rating” value (morningglory [4]; [13]) was 30. The “Morningglory plant response rating” value (morningglory [4]; [14]) was 20, the “Pigweed plant response rating” value (pigweed; [13]) was 70 and the “Pigweed plant response rating” value (pigweed; [14]) was 50. The “Velvetleaf plant response rating” value (velvetleaf [5]; [13]) was 30, the “Velvetleaf plant response rating” value (velvetleaf [5]; [14]) was 30 and the “Blackgrass plant response rating” value (blackgrass; [13]) was 30. For the same compound, the “Blackgrass plant response rating” value (blackgrass; [14]) was 30, the “Wheat plant response rating” value (wheat; 500 g ai/ha, scale 0 to 100, 0 no effect, 100 complete control, preemergence) was 70 and the “Wheat plant response rating” value (wheat; [13]) was 40. For the same compound, the “Wheat plant response rating” value (wheat; [14]) was 20, the “Oat, Wild plant response rating” value (wild oat; [13]) was 60 and the “Oat, Wild plant response rating” value (wild oat; [14]) was 50. The “Rice plant response rating” value (rice; 125 g ai/ha) was 30, the “Sedge, Umbrella plant response rating” value ([6]; 125 g ai/ha) was 70 and the “Ducksalad plant response rating” value (ducksalad; 125 g ai/ha) was 10. For the same compound, the “Barnyardgrass plant response rating” value (barnyardgrass [7]; 125 g ai/ha) was 0.
CCn1nc(C(C)(C)C)nc1C(=O)Nc1cc(C(=O)N(C)C)ccc1F [Compound 450] was tested, and the “Barnyardgrass plant response rating” value (barnyardgrass [8]; [15]) was 60, the “Barnyardgrass plant response rating” value (barnyardgrass [8]; [16]) was 80 and the “Barnyardgrass plant response rating” value (barnyardgrass [8]; [17]) was 60. For the same compound, the “Barnyardgrass plant response rating” value (barnyardgrass [8]; [18]) was 95, the “Crabgrass, Large plant response rating” value (large crabgrass [9]; [15]) was 15 and the “Crabgrass, Large plant response rating” value (large crabgrass [9]; [16]) was 70. The “Crabgrass, Large plant response rating” value (large crabgrass [9]; [17]) was 35, the “Crabgrass, Large plant response rating” value (large crabgrass [9]; [18]) was 70 and the “Foxtail, Giant plant response rating” value (giant foxtail [10]; [15]) was 50. The “Foxtail, Giant plant response rating” value (giant foxtail [10]; [16]) was 75, the “Foxtail, Giant plant response rating” value (giant foxtail [10]; [17]) was 70 and the “Foxtail, Giant plant response rating” value (giant foxtail [10]; [18]) was 95. For the same compound, the “Morningglory plant response rating” value (morningglory [11]; [15]) was 25, the “Morningglory plant response rating” value (morningglory [11]; [16]) was 30 and the “Morningglory plant response rating” value (morningglory [11]; [17]) was 0. The “Morningglory plant response rating” value (morningglory [11]; [18]) was 15, the “Pigweed plant response rating” value (redroot pigweed; [15]) was 20 and the “Pigweed plant response rating” value (redroot pigweed; [16]) was 55. For the same compound, the “Pigweed plant response rating” value (redroot pigweed; [17]) was 25, the “Pigweed plant response rating” value (redroot pigweed; [18]) was 95 and the “Velvetleaf plant response rating” value (velvetleaf [12]; [15]) was 30. The “Velvetleaf plant response rating” value (velvetleaf [12]; [16]) was 60, the “Velvetleaf plant response rating” value (velvetleaf [12]; [17]) was 0 and the “Velvetleaf plant response rating” value (velvetleaf [12]; [18]) was 35. For the same compound, the “Rice plant response rating” value (rice; 125 g ai/ha) was 60, the “Rice plant response rating” value (rice; 500 g ai/ha) was 80 and the “Sedge, Umbrella plant response rating” value ([6]; 125 g ai/ha) was 60. The “Sedge, Umbrella plant response rating” value ([6]; 500 g ai/ha) was 80, the “Ducksalad plant response rating” value (ducksalad; 125 g ai/ha) was 40 and the “Ducksalad plant response rating” value (ducksalad; 500 g ai/ha) was 80. The “Barnyardgrass plant response rating” value (barnyardgrass [7]; 125 g ai/ha) was 50 and the “Barnyardgrass plant response rating” value (barnyardgrass [7]; 500 g ai/ha) was 80.
